The supplement of paper PMC9663587

Experiments:
Assay in all cases: area over the GR curve, 72 h; higher = more effect;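 further: Dye Drop or Deep Dye Drop imaging of viable cells in 384-well plates (Hoechst nuclei, LIVE/DEAD dye), nine half-log doses, GR normalized to DMSO controls and time-zero plates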
T47D = system: T47D
BT474 = system: BT474
SUM149 = system: SUM149
ZR7530 = system: ZR7530
PDXHCI002 = system: PDXHCI002
MDAMB415 = system: MDAMB415
AU565 = system: AU565
MDAMB468 = system: MDAMB468
MDAMB361 = system: MDAMB361
MCF12A = system: MCF12A
SUM52PE = system: SUM52PE
MCF10A = system: MCF10A
SUM190PT = system: SUM190PT

Row | SMILES | area over the GR curve (T47D) [GR] | area over the GR curve (BT474) [GR] | area over the GR curve (SUM149) [GR] | area over the GR curve (ZR7530) [GR] | area over the GR curve (PDXHCI002) [GR] | area over the GR curve (MDAMB415) [GR] | area over the GR curve (AU565) [GR] | area over the GR curve (MDAMB468) [GR] | area over the GR curve (MDAMB361) [GR] | area over the GR curve (MCF12A) [GR] | area over the GR curve (SUM52PE) [GR] | area over the GR curve (MCF10A) [GR] | area over the GR curve (SUM190PT) [GR]
1 | COc1ccc2c(c1)[C@]1(C[C@H]1c1ccc3c(/C=C/c4ccc(CN5C[C@@H](C)O[C@@H](C)C5)cc4)n[nH]c3c1)C(=O)N2 | 0.79 | 0.475 | 0.672 | 0.509 | 0.489 | 0.36 | 0.725 | 0.838 | 0.425 | 0.499 | 0.516 | 0.817 | 0.751
2 | COc1cccc(OCCCN)c1-c1cc(Nc2cnc(C#N)cn2)n[nH]1 | 0.18 | 0.186 | 0.793 | 0.0681 | 0.045 | 0.0862 | 0.5 | 0.227 | 0.828 | 0.589 | 0.425 | 0.301 | 0.598
3 | CC(=O)Nc1cccc(-n2c(=O)n(C3CC3)c(=O)c3c(Nc4ccc(I)cc4F)n(C)c(=O)c(C)c32)c1 (max 1 µM) | 0.213 | -0.316 | 0.39 | 0.219 | 0.2 | 0.174 | -0.0244 | 0.213 | 0.219 | 0.531 | 0.224 | 0.527 | 0.0746
4 | CCc1cnn2c(NCc3ccc[n+]([O-])c3)cc(N3CCCC[C@H]3CCO)nc12 (max 1 µM) | 0.47 | 0.728 | 0.687 | 0.713 | 0.584 | 0.55 | 0.857 | 0.568 | 0.593 | 0.424 | 0.491 | 0.528 | 0.654
5 | CC(=O)c1c(C)c2cnc(Nc3ccc(N4CCNCC4)cn3)nc2n(C2CCCC2)c1=O (max 3.162 µM) | 0.45 | 0.194 | 0.19 | 0.284 | 0.273 | 0.454 | 0.296 | -0.0231 | 0.473 | 0.0837 | 0.201 | 0.188 | 0.319
6 | CCc1cncnc1N1CCN(Cc2nc3ccc(C(F)(F)F)cc3[nH]2)CC1 (max 10 µM) | 0.122 | -0.104 | 0.0207 | 0.0942 | -0.045 | 0.0085 | 0.0402 | 0.118 | 0.0684 | -0.0039 | 0.0787 | 0.0475 | 0.0049
7 | CCCCOc1c(C(=O)c2c(F)cc(C)cc2F)c[nH]c2nncc1-2 (max 10 µM) | 0.649 | 0.137 | 0.637 | 0.481 | 0.108 | 0.349 | 0.514 | 0.516 | 0.56 | 0.272 | 0.464 | 0.39 | 0.715
